Results on twelve compounds are retold here after patent publication US8367838B2, “Amines or amino alcohols as GLYT1 inhibitors” (Hoffmann-La Roche Inc., priority 2009, dated 2013).

Where a name gives a salt, the structure may show the parent alone.

The target of this assay is T1, mGlyT-1b (Mus musculus, UniProt P28571).
T1 construct: host or cells: Flp-in-CHO
T1 sequence (P28571 1-651 isoform P28571-2): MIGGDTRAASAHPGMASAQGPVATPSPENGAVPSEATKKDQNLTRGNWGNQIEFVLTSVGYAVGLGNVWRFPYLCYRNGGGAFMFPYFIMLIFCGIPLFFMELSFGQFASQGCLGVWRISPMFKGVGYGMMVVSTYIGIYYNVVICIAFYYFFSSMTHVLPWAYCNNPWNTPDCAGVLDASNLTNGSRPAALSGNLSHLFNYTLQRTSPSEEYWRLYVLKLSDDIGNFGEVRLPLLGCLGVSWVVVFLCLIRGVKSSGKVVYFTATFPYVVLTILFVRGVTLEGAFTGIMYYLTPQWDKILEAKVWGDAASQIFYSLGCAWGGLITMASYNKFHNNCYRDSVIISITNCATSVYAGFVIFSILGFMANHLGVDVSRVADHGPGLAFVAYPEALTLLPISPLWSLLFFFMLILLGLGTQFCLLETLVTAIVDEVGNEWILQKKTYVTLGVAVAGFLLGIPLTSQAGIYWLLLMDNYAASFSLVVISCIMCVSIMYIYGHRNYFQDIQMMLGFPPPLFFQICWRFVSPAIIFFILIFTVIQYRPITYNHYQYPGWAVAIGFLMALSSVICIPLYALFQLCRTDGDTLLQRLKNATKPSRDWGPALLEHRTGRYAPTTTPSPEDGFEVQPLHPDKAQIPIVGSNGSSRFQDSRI
The assay can be described thus: Glycine uptake inhibition assay (mGlyT-1b), [3H]-glycine uptake in transfected Flp-in-CHO cells. Format: cell-based. The following applies: Flp-in-CHO cells transfected with mGlyT-1b cDNA; [3H]-glycine 60 nM and 25 μM non-radioactive glycine; 20 min preincubation at 22° C.; read-out: IC50 (μM) at GlyT-1; Ic50 (hglyt1b). The method, then: Nutrient mixture F-12 (Gibco Life-technologies), fetal bovine serum (FBS) 5%, (Gibco life technologies), Penicillin/Streptomycin 1% (Gibco life technologies), Hygromycin 0.6 mg/ml (Gibco life technologies), Glutamine 1 mM Gibco life technologies).
150 mM NaCl, 10 mM Hepes-Tris, pH 7.4, 1 mM CaCl2, 2.5 mM KCl, 2.5 mM MgSO4, 10 mM (+) D-glucose. Flp-in™-CHO (Invitrogen Cat n° R758-07) cells stably transfected with mGlyT1b cDNA.
Glycine Uptake Inhibition Assay (mGlyT-1b)
On day 1 mammalian cells, (Flp-in™-CHO), transfected with mGlyT-1b cDNA, were plated at the density of 40,000 cells/well in complete F-12 medium, without hygromycin in 96-well culture plates. On day 2, the medium was aspirated and the cells were washed twice with uptake buffer (UB). The cells were then incubated for 20 min at 22° C. with either (i) no potential competitor, (ii) 10 mM non-radioactive glycine, (iii) a concentration of a potential inhibitor. A range of concentrations of the potential inhibitor was used to generate data for calculating the concentration of inhibitor resulting in 50% of the effect (e.g. IC50, the concentration of the competitor inhibiting glycine uptake of 50%). A solution was then immediately added containing [^3H]-glycine 60 nM (11-16 Ci/mmol) and 25 μM non-radioactive glycine. The plates were incubated with gentle shaking and the reaction was stopped by aspiration of the mixture and washing (three times) with ice-cold UB. The cells were lysed with scintillation liquid, shaken 3 hours and the radioactivity in the cells was counted using a scintillation counter.
What is called IC50 is the concentration at which inhibition is half-maximal. As for `CS(=O)(=O)c1cccc(-c2ccc([C@@H](O)[C@@H](N)c3ccc(Cl)c(Cl)c3)c(F)c2)c1` (racemic) [Example 1, rac-erythro-[2-Amino-2-(3,4-dichloro-phenyl)-1-(3-fluoro-3′-methanesulfonyl-biphenyl-4-yl)-ethanol trifluoroacetate], the concentration for half-maximal inhibition (IC50) was determined as 0.025 µM. As for `Cc1cc(-c2cncc(F)c2)ccc1[C@@H](O)[C@@H](N)c1ccc(Cl)c(Cl)c1` (racemic) [Example 2, rac-erythro-[2-Amino-2-(3,4-dichloro-phenyl)-1-[4-(5-fluoro-pyridin-3-yl)-2-methyl-phenyl]]-ethanol dihydrochloride], the figure is 0.063 µM. As for `COc1cc([C@@H](O)[C@@H](N)c2ccc(Cl)c(Cl)c2)ccc1-c1cncc(F)c1` (racemic) [Example 3, rac-erythro-[2-Amino-2-(3,4-dichloro-phenyl)-1-[4-(5-fluoro-pyridin-3-yl)-3-methoxy-phenyl]-ethanoldihydrochloride], the figure is 0.186 µM; as for `COc1cc(-c2cncc(F)c2)ccc1[C@@H](O)[C@@H](N)c1ccc(Cl)c(Cl)c1` (racemic) [Example 4, rac-erythro-[2-Amino-2-(3,4-dichloro-phenyl)-1-[4-(5-fluoro-pyridin-3-yl)-2-methoxy-phenyl]-ethanoldihydrochloride], 0.346 µM. With `CS(=O)(=O)c1cccc(-c2cccc([C@@H](O)[C@@H](N)c3ccc(Cl)c(Cl)c3)c2)c1` (racemic) [Example 5, rac-erythro-[2-Amino-2-(3,4-dichloro-phenyl)-1-(3′-methanesulfonyl-biphenyl-3-yl)-ethanol trifluoroacetate], the half-maximal inhibitory concentration (IC50) is 0.615 µM. On to `CS(=O)(=O)c1cccc(-c2ccc([C@@H](O)[C@@H](N)c3ccc(Cl)c(Cl)c3)cc2)c1` (racemic) [Example 7, rac-erythro-[2-Amino-2-(3,4-dichloro-phenyl)-1-(3′-methanesulfonyl-biphenyl-4-yl)-ethanol trifluoroacetate], for which the 50% inhibitory concentration (IC50) was 0.041 µM. The same measure for `N[C@@H](c1ccc(Cl)cc1)[C@H](O)c1ccc(OC2CCCOC2)cc1` (mixture of isomers) [Example 9, rac-erythro-[2-Amino-2-(4-chloro-phenyl)-1-[4-(tetrahydro-pyran-3-yloxy)-phenyl]-ethanol]: 0.138 µM. As for `CC(C)Oc1ccc([C@@H](O)[C@@H](N)c2ccc(Cl)cc2)cc1` (racemic) [Example 10, rac-erythro-[2-Amino-2-(4-chloro-phenyl)-1-(4-isopropoxy-phenyl)-ethanol hydrochloride], the figure is 0.188 µM. On to `CS(=O)(=O)c1cccc(-c2ccc([C@@H](O)[C@@H](N)c3ccc(Cl)c(Cl)c3)nc2)c1` (racemic) [Example 11, rac-erythro-[2-Amino-2-(3,4-dichloro-phenyl)-1-[5-(3-methanesulfonyl-phenyl)-pyridin-2-yl]-ethanol bistrifluoroacetate], for which the IC50 was found to be 0.097 µM.

`N[C@@H](c1ccc(Cl)c(Cl)c1)[C@H](O)c1ccc(-c2cncc(F)c2)cn1` (racemic) [Example 12, rac-erythro-[2-Amino-2-(3,4-dichloro-phenyl)-1-(5′-fluoro-[3,3′]bipyridinyl-6-yl)-ethanoltrihydrochloride]: the IC50 was determined as 0.148 µM.

Take `COc1cccc(-c2cnc([C@@H](O)[C@@H](N)c3ccc(Cl)c(Cl)c3)c(F)c2)c1` (racemic) [Example 13, rac-erythro-[2-Amino-2-(3,4-dichloro-phenyl)-1-[3-fluoro-5-(3-methoxy-phenyl)-pyridin-2-yl]-ethanoldihydrochloride]: the IC50 worked out at 0.113 µM. The same measure for `Cc1cc([C@@H](O)[C@@H](N)c2ccc(Cl)c(Cl)c2)ccc1-c1cncc(F)c1` (racemic) [Example 14, rac-erythro-[2-Amino-2-(3,4-dichloro-phenyl)-1-[4-(5-fluoro-pyridin-3-yl)-3-methyl-phenyl]-ethanolbis-trifluoroacetate]: 0.275 µM.
